This note sets out measurements from ChEMBL document CHEMBL3046107, “A new isoflavone from Blepharis ciliaris of an Egyptian origin” (Med Chem Res, 2013).

Calls of active or inactive are those of the source. No cut-off for these calls is given here.

The test system of this assay is Radical scavenging activity. Description: Antioxidant activity assessed as DPPH radical scavenging activity at 20 uM after 2 min by spectrophotometric analysis. In kind it is functional. In general terms: Loss of DPPH colour is used to gauge radical scavenging.

With `O=C(/C=C/c1ccc(O)c(O)c1)OC[C@H]1O[C@@H](Oc2cc(O)c3c(c2)O[C@H](c2ccc(O)cc2)CC3=O)[C@H](O)[C@@H](O)[C@@H]1O`, the outcome was inactive.

For `O=C(/C=C/c1ccc(O)c(O)c1)OC[C@H]1O[C@@H](Oc2cc(O)c3c(=O)c(-c4ccc(O)cc4)coc3c2)[C@H](O)[C@@H](O)[C@@H]1O`, the result was inactive.
